Reference: patent US6641840B2, “Sustained release formulations for growth hormone secretagogues” (Pfizer Inc., priority 2000, dated 2003)
Where no end group is shown, it is not given here. [ ]: non-standard residue; d: D form.

Assays:
rat pituitary cells [1] = test: Pituitary cell desensitization - intracellular calcium assay; format: cell-based
Source text: Thus, it appears that sustained release formulations would not provide the desired in vivo response. The experiment was designed so that changes in intracellular calcium concentration could be continuously monitored during successive exposures of the same cells to the indicated test substances.
Rat pituitary cells were isolated as described in Example 3 and plated onto poly-D-lysine-coated glass coverslips, one coverslip per well in 12-well plates, at a density of 3-4×10^5 cells per well. Assays were performed 3-4 days after plating. Cells were loaded with 5 μM fura-2 AM (Molecular Probes, Eugene, Oreg.), a calcium-sensitive fluorescent dye, by incubation for 30 min at room temperature. Fura-2 was dissolved in dimethylsulfoxide at 5 mM, then diluted into KRH buffer (115 mM NaCl, 5.4 mM KCl, 1.8 mM CaCl2, 1 mM MgCl2, 0.96 mM NaH2PO4, 25 mM HEPES, 6 mM glucose and 0.05% bovine serum albumin, adjusted to pH 7.3)
To assay changes in intracellular calcium concentration, a coverslip with attached cells was mounted in a perfusion chamber on the stage of an inverted microscope (Zeiss Axiovert 135 with epifluorescence, Geschaftsbereich Mikroscopie, Oberkochen, Germany) and continuously superfused at room temperature. After superfusion with KRH for 1-2 min, baseline fluorescence was recorded. Each test substance was applied for 2 min, followed by washout with KRH prior to stimulation with the next test substance. Up to 20 individual cells per field were selected for recording and were excited alternately at wavelengths of 380 nm or 340 nm (slit width 15 nm). Fluorescence emission at 510 nm was collected at 5 sec intervals by a low light CCD camera (Hamamatsu Photonics, Hamamatsu City, Japan), and digitized images for the two excitation wavelengths were analyzed using Videoprobe software (ETM Systems, Irvine, Calif.) to determine the 340 nm/380 nm fluorescence ratio for individual cells during each time interval. The 340 nm/380 nm fluorescence ratio is proportional to the concentration of intracellular calcium.

rat pituitary cells [2] = test: Pituitary cell desensitization - growth hormone release assay; format: cell-based
Experimental: The experiment was designed so that cultures were exposed to a growth hormone secretagogue for 60 min, then growth hormone release was measured during a subsequent 15 min exposure to the same or different growth hormone secretagogue.
Anterior pituitary glands from male Wistar rats (150-175 g, Charles River, Laboratories, Wilmington, Mass.) were collected in Hank's Balanced Salt Solution (#14170, Life Technologies, Gaithersburg, Md.). Glands were minced with a scalpel, then incubated with bacterial protease (Type IX, EC3.4.24.4, #P-6141, Sigma Chemicals, Milwaukee, Wis.) at 10 U/ml to release individual cells. Cells were pelleted by centrifugation at 200×g for 15 min, then suspended in culture medium and plated at a density of 6.0-6.5×10^4 cells per 0.5 ml per well in 48-well tissue culture plates (#3848, Costar Corporation, Cambridge, Mass.). Culture medium consisted of D-MEM (Dulbecco's Modified Eagle Medium) with high glucose and sodium bicarbonate (#11965) supplemented with 10% heat-inactivated horse serum (#26050, Life Technologies, Gaithersburg, Md.), 2.5% fetal bovine serum (#16140, Life Technologies, Gaithersburg, Md.), 0.1 mM MEM non-essential amino acids (#11140, Life Technologies, Gaithersburg, Md.), 100 U/ml nystatin (#15340, Life Technologies, Gaithersburg, Md.) and 50 ug/ml gentamicin sulfate (#15750, Life Technologies, Gaithersburg, Md.). Cultures were maintained for 3-4 days in a humidified, 5% CO2/95% air incubator at 37° C. prior to performing assays for growth hormone release.
For growth hormone release assays, cultures were pre-equilibrated at 37° C. in pre-warmed release medium for 1 h in the presence of a growth hormone secretagogue or excipient (Pretreatment). Release medium consisted of Phenol Red-free D-MEM without bicarbonate (#23800, Life Technologies, Gaithersburg, Md.) supplemented with 25 mM N-[2-hydroxyethyl]piperazine-N′-[2-ethanesulfonic acid] (HEPES), 4.5 g/L glucose, 0.11 g/L sodium pyruvate, 0.584 g/L […] and 0.5% bovine serum albumin (#A-7888, Sigma Chemicals, Milwaukee, Wis.), adjusted to pH 7.4. After pretreatment, the medium was removed and replaced with fresh pre-warmed release medium containing a growth hormone secretagogue or excipient at 0.5 ml/well for 15 min (Treatment). Medium from the Treatment was collected, centrifuged to remove any cells, then assayed for growth hormone content by a conventional double-antibody radioimmunoassay using monkey anti-growth hormone antisera (NIDDK anti-rGH-S-5) and reference rat growth hormone standard (NIDDK-rGH-RP) from Dr. A. F. Parlow, Harbor-UCLA Medical Center, Torrance, Calif. Immune complexes were precipitated using goat anti-monkey immunoglobulin G (#55418, Cappel, Durham, N.C.).
Growth hormone secretagogue solutions were prepared at 1000 times the desired concentration and diluted into pre-warmed release medium immediately before use. Peptides such as His-D-Trp-Ala-Trp-Ala-Trp-D-Phe-Lys-NH2 (GHRP-6, #8061, Peninsula Laboratories, Belmont, Calif.) and rat growth hormone releasing factor (GHRH, #8068, Peninsula Laboratories, Belmont, Calif.) were dissolved at 100 μM in 4 mM acetic acid, 10% ethanol, 0.1% bovine serum albumin; other growth hormone secretagogues were dissolved at 5 mM in dimethyl sulfoxide.

## [Cl-].[K+] [KCl, reference compound]
Rat pituitary cells [1]; after re-exposure to Compound A
  response of the same (refractory) cells: remained responsive

## GHRH: rat growth hormone releasing factor (GHRH, #8068, Peninsula Laboratories) (HADAIFTSSYRRILGQLYARKLLHEIMNRQQGERNQEQRSRFN; Somatoliberin; UniProt P09916 31-73, looked up) [reference compound]
Rat pituitary cells [2]; pretreatment 100 nM GHRH 60 min, treatment none
  GH release: 12.67 ± 3.31 ng/mL/15 min

## H[dW]AWAW[dF]K-NH2 [GHRP-6, reference compound]
Rat pituitary cells [2]; pretreatment 100 nM GHRP-6 60 min, treatment 100 nM GHRP-6 15 min
  GH release: 7.83 ± 0.98 ng/mL/15 min
Rat pituitary cells [2]; pretreatment 100 nM GHRP-6 60 min, treatment none
  GH release: 9.06 ± 1.87 ng/mL/15 min
Rat pituitary cells [2]; pretreatment none, treatment 100 nM GHRP-6 15 min, mean ± SD, n = 4
  GH release: 31.01 ± 8.46 ng/mL/15 min
Rat pituitary cells [1]; successive 2 min exposures with washout
  cellular responses (intracellular calcium) on repeated exposure: homologous desensitization
